Experimental data from patent publication US7276510B2, “HIV replication inhibitors” (Janssen Pharmaceutica, Inc., priority 2000, dated 2007).
Where a name gives a salt, the structure may show the parent alone. Read-outs that look alike come from different tables or passages of the source.

Assays:
[1] = tested on: HIV-infected MT-4 cells; assay: Inhibition of the HIV-induced cytopathic effect in MT-4 cells (MTT); format: cell-based; details: for SI (selectivity index, ratio of CC50 to IC50): CC50/IC50 in MT-4 cells; for IC50: HIV-infected MT-4 cells, MTT, OD 540 nm
Protocol: (§1) A rapid, sensitive and automated assay procedure was used for the in vitro evaluation of anti-HIV agents. An […] T4-cell line, MT-4, which was previously shown (Koyanagi et al., Int. J. Cancer, 36, 445-451, 1985) to be highly susceptible to and permissive for HIV infection, served as the target cell line. Inhibition of the HIV-induced cytopathic effect was used as the end point. The viability of both HIV- and mock-infected cells was assessed spectrophotometrically via the in situ reduction of 3-(4,5-dimethylthiazol-2-yl)-2,5-diphenyltetrazolium bromide (MTT). […] The percent protection achieved by the compound in HIV-infected cells was calculated by the following formula:
(§2) [formula] whereby (ODT)HIV is the optical density measured with a given concentration of the test compound in HIV-infected cells; (ODC)HIV is the optical density measured for the control untreated HIV-infected cells; (ODC)MOCK is the optical density measured for the control untreated mock-infected cells; all optical density values were determined at 540 nm. […] The ratio of CC50 to IC50 was defined as the selectivity index (SI).

[2] = Cytotoxicity in mock-infected MT-4 cells (MTT); format: cell-based; details: human, OD 540 nm
Protocol: as §1, §2

[3] = tested on: mock-infected MT-4 cells; assay: Cytotoxicity in mock-infected MT-4 cells (MTT); format: cell-based; details: read-out: CC50 (50% cytotoxic concentration), OD 540 nm
Protocol: as §1, §2

[4] = Human immunodeficiency virus 1, MT4, read-out: IC50 (50% inhibitory concentration; dose achieving 50% protection)
[5] = read-out: IC50 (50% inhibitory concentration; dose achieving 50% protection)

SMILES | SI (selectivity index, ratio of CC50 to IC50) [1] | IC50 [1, 4] | CC50 [2] | melting point | IC50 [1, 5] | CC50 [3]
Cc1cc(C)c(Nc2nc(Nc3ccc(C#N)cc3)nc(C(N)=O)c2Br)c(C)c1 [Compound 98, 5-bromo-2-[(4-cyanophenyl)amino]-6-[(2,4,6-trimethylphenyl)amino]-4-pyrimidine carboxamide] | 15861 | 3.16 nM | 50100 nM |  |  | 
CNCc1nc(Nc2ccc(C#N)cc2)nc(Oc2c(C)cc(C#N)cc2C)c1Br [Compound 74] |  |  |  | 223 to 224 °C |  | 
COCc1cc(Nc2cc(C)c(F)cc2Cl)nc(Nc2ccc(C#N)cc2)n1 [Compound 3] | >1996 | 50.1 nM | > 100000 nM | 213 to 214 °C |  | 
COc1nc(Cc2c(Cl)cccc2Cl)nc(Nc2ccc(C#N)cc2)n1 [Compound 9] | >10000 | 10 nM | > 100000 nM | 198 to 199 °C |  | 
Cc1cc(C)c(Nc2cc(C(N)=O)nc(Nc3ccc(C#N)cc3)n2)c(C)c1 [Compound 61, 2-[(4-cyanophenyl)amino]-6-[(2,4,6-trimethylphenyl)amino]-4-pyrimidine carboxamide] | 19968 | 2.51 nM | 50100 nM |  |  | 
Cc1cc(C#N)cc(C)c1Oc1nc(Nc2ccc(C#N)cc2)nc(CO)c1Br [Compound 13, 4-[[[5-bromo-4-(4-cyano-2,6-dimethylphenoxy)-6-hydroxymethyl]-2-pyrimidinyl]amino]benzonitrile] | >25000 | 4 nM | > 100000 nM |  |  | 
N#Cc1ccc(Nc2nc(Cc3c(Cl)cccc3Cl)nc(N3C(=O)COCC3=O)n2)cc1 [Compound 4] | 25197 | 1.58 nM | 39800 nM | 268 to 269 °C |  | 
COCc1cc(Oc2c(C)cc(C#N)cc2C)nc(Nc2ccc(C#N)cc2)n1 [Compound 2] | 31621 | 1.58 nM | 50100 nM | 203 to 204 °C |  | 
N#Cc1ccc(Nc2nc(F)nc(Cc3c(Cl)cccc3Cl)n2)cc1 [Compound 49] |  |  |  | 199 to 201 °C |  | 
N#Cc1ccc(Nc2nc(O)nc(Cc3c(Cl)cccc3Cl)n2)cc1 [Compound 10] |  |  |  | > 300 °C |  | 
COCc1nc(Nc2ccc(C#N)cc2)nc(Oc2c(C)cc(C#N)cc2C)c1Br [Compound 12, 4-[[[5-bromo-4-(4-cyano-2,6-dimethylphenoxy)-6-methoxymethyl]-2-pyrimidinyl]amino]benzonitrile] | >25000 | 4 nM | > 100000 nM | 198 to 199 °C |  | 
N#Cc1ccc(Nc2nc(Cl)nc(Oc3c(Cl)cc(Cl)cc3Cl)n2)cc1 [Compound 72] |  |  |  | 238 to 239 °C |  | 
Cc1cc(C#N)cc(C)c1Oc1nc(Nc2ccc(C#N)cc2)nc(CCl)c1Br [Compound 73] |  |  |  | 238 to 240 °C |  | 
CNC(=O)c1cc(Nc2c(C)cc(C)cc2C)nc(Nc2ccc(C#N)cc2)n1 [Compound 63] | 7946 | 5.01 nM | 39800 nM |  |  | 
N#Cc1ccc(Nc2nc(C#N)nc(Cc3c(Cl)cccc3Cl)n2)cc1 [Compound 5] | 501 | 19.9 nM | 10000 nM | 221 to 230 °C |  | 
Cc1cc(C#N)cc(C)c1Nc1cc(C(F)(F)F)nc(Nc2ccc(C#N)cc2)n1 [Compound 33, 4-[[[6-trifluoromethyl-2-(4-cyanophenylamino)]-4-pyrimidinyl]amino]-3,5-dimethylbenzonitrile] | 1586 | 3.16 nM | 5010 nM | 249 to 251 °C |  | 
N#Cc1ccc(Nc2nc(CO)cc(Oc3c(Br)cc(C#N)cc3Br)n2)cc1 [Compound 14] | 2500 | 4 nM | > 10000 nM |  |  | 
N#Cc1ccc(Nc2nc(Cc3c(Cl)cccc3Cl)nc(N3C(=O)CCCC3=O)n2)cc1 [Compound 37] |  |  |  | 278 to 282 °C |  | 
Cc1cc(C)c(Nc2cc(C(=O)N(C)C)nc(Nc3ccc(C#N)cc3)n2)c(C)c1 [Compound 66] | 19950 | 1.58 nM | 31600 nM |  |  | 
Cc1cc(Cl)cc(Cl)c1Nc1nc(Cl)nc(Nc2ccc(C#N)cc2)n1 [Compound 109] |  |  |  |  | 3.98 nM | 12600 nM
N#Cc1ccc(Nc2nc(Cl)nc(Nc3c(Cl)cc(Cl)cc3Cl)n2)cc1 [Compound 85] |  |  |  |  | 20 nM | 50100 nM
CSc1nc(Cc2c(Cl)cccc2Cl)nc(Nc2ccc(C#N)cc2)n1 [Compound 7] | 1990 | 20 nM | 39800 nM | 184 to 185 °C |  | 
N#Cc1ccc(Nc2nc(S)nc(Cc3c(Cl)cccc3Cl)n2)cc1 [Compound 6] |  |  |  | 254 to 255 °C |  | 

SMILES | SI (selectivity index, ratio of CC50 to IC50) [1] | IC50 [1, 4] | CC50 [2] | melting point | IC50 [1, 5] | CC50 [3]
N#Cc1ccc(Nc2nc(Cl)nc(Cc3c(Cl)cccc3Cl)n2)cc1 [Compound 1, 4-[[4-chloro-6-[(2,6-dichlorophenyl)methyl]-1,3,5-triazin-2-yl]amino]-benzonitrile] |  |  |  | 243 to 244 °C |  | 
Cc1cc(C)c(Nc2nc(Nc3ccc(C#N)cc3)nc(C(N)=O)n2)c(C)c1 [Compound 19, 6-[(4-cyanophenyl)amino]-4-[(2,4,6-trimethylphenyl)amino]-1,3,5-triazine-2-carboxamide] | 3162 | 1.26 nM | 3980 nM |  |  | 
N#Cc1ccc(Nc2nc(Cc3c(Cl)cccc3Cl)nc(N3CCC(=O)O3)n2)cc1 [Compound 35] | 794 | 63.1 nM | 50100 nM |  |  | 
Clc1cccc(Cl)c1Cc1nc(Nc2ccc(-c3nnn[nH]3)cc2)nc(-c2nnn[nH]2)n1 [Compound 42] |  |  |  | 249 to 252 °C |  | 
COc1ccc(Nc2nc(Oc3c(C)cc(C#N)cc3C)cc(C(=O)N(C)C)n2)cn1 [Compound 65] | 1000 | 79.4 nM | 79400 nM |  |  | 
C=CCONc1nc(Cc2c(Cl)cccc2Cl)nc(Nc2ccc(C#N)cc2)n1 [Compound 43] | 3981 | 15.8 nM | 63100 nM |  |  | 
N#Cc1ccc(Nc2nc(Cc3c(Cl)cccc3Cl)cc(-n3ccnc3)n2)cc1 [Compound 39] |  |  |  | 275 to 285 °C |  | 
N#Cc1ccc(Nc2nc(Cc3c(Cl)cccc3Cl)nc(N3C(=O)CCC3=O)n2)cc1 [Compound 48] |  |  |  |  | 7.9 nM | > 200000 nM
Cc1cc(C)c(Oc2nc(Nc3ccc(C#N)cc3)nc(C(N)=O)n2)c(C)c1 [Compound 26] |  |  |  |  | 1 nM | 2000 nM
CCOc1nc(Cc2c(Cl)cccc2Cl)nc(Nc2ccc(C#N)cc2)n1 [Compound 58] |  |  |  |  | 25.1 nM | 50100 nM
COCc1cc(Oc2c(Br)cc(C#N)cc2Br)nc(Nc2ccc(C#N)cc2)n1 [Compound 27] |  |  |  |  | 10 nM | > 10000 nM
NC(=O)c1ccc(Nc2nc(Cc3c(Cl)cccc3Cl)nc(C(N)=O)n2)cc1 [Compound 40] |  |  |  | 287 to 295 °C |  | 
COc1ccc(Nc2nc(Oc3c(C)cc(C#N)cc3C)cc(C(N)=O)n2)cn1 [Compound 56] | 1585 | 63.1 nM | > 100000 nM |  |  | 
N#Cc1ccc(Nc2nc(Cc3c(Cl)cccc3Cl)nc(C(N)=O)n2)cc1 [Compound 38] | >39841 | 2.51 nM | > 100000 nM | 262 to 263 °C |  | 
C[S+]([O-])c1nc(Cc2c(Cl)cccc2Cl)nc(Nc2ccc(C#N)cc2)n1 (centres unmarked) [Compound 8] |  |  |  | 219 to 221 °C |  | 
N#Cc1ccc(Nc2nc(CO)c(Br)c(Oc3c(Br)cc(C#N)cc3Br)n2)cc1 [Compound 16, 4-[[[5-bromo-4-(4-cyano-2,6-dibromophenoxy)-6-hydroxymethyl]2-pyrimidinyl]amino]benzonitrile] | >39841 | 25.1 nM | > 100000 nM |  |  | 
Cc1cc(C#N)cc(C)c1Oc1nc(Cl)nc(Nc2ccc(C#N)cc2)n1 [Compound 60] |  |  |  | 260 to 265 °C |  | 
N#Cc1ccc(Nc2nc(Cc3c(Cl)cccc3Cl)nc(N3CC(O)CO3)n2)cc1 (centres unmarked) [Compound 11] | 25138 | 2.51 nM | 63100 nM |  |  | 
COC(=O)c1cc(Oc2c(C)cc(C#N)cc2C)nc(Nc2ccc(C#N)cc2)n1 [Compound 71] | >3984 | 25.1 nM | > 100000 nM | 258 to 259 °C (dec.) |  | 
C=CCONc1nc(Cc2c(Cl)cccc2Cl)nc(Nc2ccc(C#N)cc2)n1 (as salt: trifluoroacetate) [Compound 43] |  |  |  | 225 to 227 °C |  | 
N#Cc1ccc(Nc2nc(Cc3c(Cl)cccc3Cl)nc(N3CC(O)CO3)n2)cc1 (centres unmarked) (as salt: trifluoroacetate) [Compound 11] |  |  |  | 175 °C |  | 
N#Cc1ccc(Nc2nc(Cc3c(Cl)cccc3Cl)nc(-n3[nH]nnc3=N)n2)cc1 [Compound 46] |  |  |  | 302 to 304 °C |  | 
COC(=O)c1cc(Nc2c(C)cc(C)cc2C)nc(Nc2ccc(C#N)cc2)n1 [Compound 62] | 1261 | 6.3 nM | 7940 nM |  |  | 
